Among the data in US8148391B2 (Cephalon, Inc., priority 2006, dated 2012) are IC50 values, retold here.

Assay [1] addresses T1, baculovirus-expressed ALK (Homo sapiens, UniProt Q9UM73).
T1 construct: host or cells: baculovirus expression system
Kind of assay: ALK Kinase Assay (ELISA-type, time-resolved fluorescence). In kind it is biochemical. In short, it runs like this: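 Wells were coated with phospholipase C-γ at 10 μg/mL in Tris-buffered saline. Adding 30 ng/ml enzyme started the reaction, which ran at 37° C for 15 minutes before Eu-N1 PT66 antibody detection. Percent inhibition versus log10 concentration gave IC50 by variable-slope fit.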
(In an ELISA, binding on a coated surface is turned into a signal by an enzyme label.)

Assay [2] addresses T2, c-Met (cytoplasmic domain) (Homo sapiens, UniProt P08581).
T2 construct: 10 ng/mL c-Met (cytoplasmic domain, Invitrogen Corporation #PV3143); purchased Invitrogen Corporation PV3143
As to the kind of experiment: c-Met Kinase Assay (same methods as for ALK, with modifications). Type of assay: biochemical. Summed up:
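Steps: coat wells with PLC-γ (10 μg/mL, Tris-buffered saline); add 10 ng/mL c-Met cytoplasmic domain to initiate; incubate 15 min, 37° C; detect phosphoproduct via Eu-N1 PT66 antibody.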

The mark [3] stands for this setting: 1 μM ATP (Km level), read-out: ALK Activity (ALK Kinase Inhibition, IC50).
[4] abbreviates: 1 μM ATP (Km level), read-out: cMet Activity (c-Met Kinase Inhibition, IC50).
The mark [5] stands for this setting: ALK kinase inhibition, 1 μM ATP (Km level), read-out: ALK Activity.
[6] abbreviates: c-Met kinase inhibition, 1 μM ATP (Km level), read-out: cMet Activity.
Where [7] appears, read: 1 μM ATP (Km level), 30 ng/ml ALK, 37° C., 15 minutes, read-out: ALK Activity (ALK kinase inhibition, IC50 class).
The mark [8] stands for this setting: 1 μM ATP (Km level), 10 ng/mL c-Met, read-out: cMet Activity (c-Met kinase inhibition, IC50 class).
[9] abbreviates: ALK kinase inhibition, 1 μM ATP, read-out: ALK Activity.
Setting [10] is: c-Met kinase inhibition, 1 μM ATP, read-out: cMet Activity.

Where two headings read alike, the source gives them in different places. Where only a bound is given, the exact number is not on record here.

T1 sequence (Q9UM73 19-1620): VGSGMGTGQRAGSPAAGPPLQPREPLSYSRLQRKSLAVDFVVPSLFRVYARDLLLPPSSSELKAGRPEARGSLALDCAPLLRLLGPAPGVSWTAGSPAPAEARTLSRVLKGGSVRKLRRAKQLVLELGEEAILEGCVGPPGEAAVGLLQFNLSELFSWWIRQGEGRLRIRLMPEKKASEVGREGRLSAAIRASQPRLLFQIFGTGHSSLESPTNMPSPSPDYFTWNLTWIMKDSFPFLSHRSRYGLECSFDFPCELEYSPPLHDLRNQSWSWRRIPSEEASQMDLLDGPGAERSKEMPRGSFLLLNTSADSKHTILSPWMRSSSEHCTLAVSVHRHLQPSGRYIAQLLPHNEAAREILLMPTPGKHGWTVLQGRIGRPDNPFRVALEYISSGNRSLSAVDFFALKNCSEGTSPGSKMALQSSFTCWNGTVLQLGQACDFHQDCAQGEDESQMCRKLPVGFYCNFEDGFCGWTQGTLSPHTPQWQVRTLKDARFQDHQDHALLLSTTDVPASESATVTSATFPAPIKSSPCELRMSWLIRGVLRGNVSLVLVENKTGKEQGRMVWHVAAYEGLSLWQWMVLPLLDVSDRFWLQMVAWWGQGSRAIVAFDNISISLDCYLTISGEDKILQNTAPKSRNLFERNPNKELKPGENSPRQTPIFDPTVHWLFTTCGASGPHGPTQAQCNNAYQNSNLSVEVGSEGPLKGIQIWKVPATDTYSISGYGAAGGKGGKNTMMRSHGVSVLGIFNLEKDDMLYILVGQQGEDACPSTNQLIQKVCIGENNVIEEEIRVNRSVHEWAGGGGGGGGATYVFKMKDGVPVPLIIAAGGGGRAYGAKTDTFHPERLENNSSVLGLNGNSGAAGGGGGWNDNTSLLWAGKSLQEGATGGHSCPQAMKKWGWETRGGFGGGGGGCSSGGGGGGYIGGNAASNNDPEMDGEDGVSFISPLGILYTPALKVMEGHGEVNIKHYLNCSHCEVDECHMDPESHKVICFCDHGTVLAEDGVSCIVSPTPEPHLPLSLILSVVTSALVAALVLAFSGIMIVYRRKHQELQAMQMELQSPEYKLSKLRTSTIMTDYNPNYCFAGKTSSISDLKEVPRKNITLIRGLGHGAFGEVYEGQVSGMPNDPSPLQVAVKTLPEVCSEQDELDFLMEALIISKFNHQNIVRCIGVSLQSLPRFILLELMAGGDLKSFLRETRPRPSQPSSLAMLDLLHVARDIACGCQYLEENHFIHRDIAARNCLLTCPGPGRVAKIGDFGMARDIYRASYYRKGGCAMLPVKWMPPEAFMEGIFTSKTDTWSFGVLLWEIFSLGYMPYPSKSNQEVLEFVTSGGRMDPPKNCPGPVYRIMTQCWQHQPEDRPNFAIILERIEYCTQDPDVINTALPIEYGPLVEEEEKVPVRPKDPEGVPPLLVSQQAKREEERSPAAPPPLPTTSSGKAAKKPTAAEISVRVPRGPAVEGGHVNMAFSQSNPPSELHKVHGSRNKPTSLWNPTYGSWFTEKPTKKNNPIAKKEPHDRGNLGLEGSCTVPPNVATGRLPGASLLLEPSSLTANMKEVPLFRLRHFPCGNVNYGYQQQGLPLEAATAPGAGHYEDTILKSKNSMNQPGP
T2 sequence (P08581 956-1390 limits assumed): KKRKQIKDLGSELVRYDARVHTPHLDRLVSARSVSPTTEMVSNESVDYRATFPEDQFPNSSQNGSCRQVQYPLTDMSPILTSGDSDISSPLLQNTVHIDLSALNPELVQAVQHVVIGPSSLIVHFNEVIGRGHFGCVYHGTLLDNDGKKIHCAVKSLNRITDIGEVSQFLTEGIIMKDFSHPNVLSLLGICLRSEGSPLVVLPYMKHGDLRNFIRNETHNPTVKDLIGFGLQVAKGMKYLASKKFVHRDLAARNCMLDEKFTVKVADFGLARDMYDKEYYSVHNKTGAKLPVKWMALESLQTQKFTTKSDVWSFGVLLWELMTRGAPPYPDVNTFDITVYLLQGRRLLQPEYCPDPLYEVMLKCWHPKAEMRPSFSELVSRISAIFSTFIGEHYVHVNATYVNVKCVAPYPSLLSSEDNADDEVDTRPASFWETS

As to `CCN1CCN(CC)c2cc(Nc3ncc(Cl)c(Nc4ccccc4C(=O)OCCOC)n3)ccc2C1` [Example 713, 2-[5-Chloro-2-(1,4-diethyl-2,3,4,5-tetrahydro-1H-benzo[e][1,4]diazepin-8-ylamino)-pyrimidin-4-ylamino]-benzoic acid 2-methoxy-ethyl ester], the IC50 was < 100 nM in assay [1] (setting [3]) and 1000 to 10000 nM in assay [2] (setting [4]).
Regarding `CCN1CCc2ccc(Nc3ncc(Cl)c(Nc4ccccc4-c4nccn4C)n3)cc2CC1` [Example 216, 5-Chloro-N*2*-(3-ethyl-2,3,4,5-tetrahydro-1H-benzo[d]azepin-7-yl)-N*4*-[2-(1-methyl-1H-imidazol-2-yl)-phenyl]-pyrimidine-2,4-diamine], the IC50 is < 100 nM in assay [1] (setting [5]) and 100 to 1000 nM in assay [2] (setting [6]).
On to `CN1CCN(C[C@@H](O)C(F)(F)F)Cc2cc(OCC(F)(F)F)c(Nc3ncc(Cl)c(N[C@@H]4CCCC[C@H]4NS(C)(=O)=O)n3)cc21` [Example 498, N-((1R,2R)-2-{5-Chloro-2-[1-methyl-7-(2,2,2-trifluoro-ethoxy)-4-((R)-3,3,3-trifluoro-2-hydroxy-propyl)-2,3,4,5-tetrahydro-1H-benzo[e][1,4]diazepin-8-ylamino]-pyrimidin-4-ylamino}-cyclohexyl)-methanesulfonamide], for which the IC50 in assay [1] (setting [3]) is 100 to 1000 nM; in assay [2] (setting [4]), > 10000 nM.
On to `CNC(=O)c1ccccc1Nc1nc(Nc2ccc3c(c2)CCC(F)(F)CC3)ncc1Cl` [Example 180, 2-[5-Chloro-2-(7,7-difluoro-6,7,8,9-tetrahydro-5H-benzocyclohepten-2-ylamino)-pyrimidin-4-ylamino]-N-methyl-benzamide], for which the IC50 was < 100 nM in assay [1] (setting [5]) and 100 to 1000 nM in assay [2] (setting [6]).
With `CN1CCN(C2CCN(C3CCc4ccc(Nc5ncc(Cl)c(N[C@@H]6CCCC[C@H]6NS(C)(=O)=O)n5)cc4CC3)CC2)CC1` (stereo partly drawn) [Example 886, N-[(1R,2R)-2-(5-Chloro-2-{7-[4-(4-methyl-piperazin-1-yl)-piperidin-1-yl]-6,7,8,9-tetrahydro-5H-benzocyclohepten-2-ylamino}-pyrimidin-4-ylamino)-cyclohexyl]-methanesulfonamide], the results for the IC50 in assay [1] (setting [3]) and in assay [2] (setting [4]) were < 100 nM and 1000 to 10000 nM, respectively.
On the same counts, the results for `COc1cc2c(cc1Nc1ncc(Cl)c(Nc3ccc(N4CCN(C)CC4)c(C)c3)n1)CCN(CC(F)F)CC2` [Example 765, 5-Chloro-N*2*-[3-(2,2-difluoro-ethyl)-8-methoxy-2,3,4,5-tetrahydro-1H-benzo[d]azepin-7-yl]-N*4*-[3-methyl-4-(4-methyl-piperazin-1-yl)-phenyl]-pyrimidine-2,4-diamine] are < 100 nM and > 10000 nM.
For the compound `CCN1C(=O)[C@@H](NC(=O)COC)CCc2c1ccc(Nc1ncc(Cl)c(N[C@H]3[C@@H](C(N)=O)[C@@H]4C=C[C@H]3C4)n1)c2OC` (single isomer, unassigned) [Example 1351], the IC50 is < 100 nM in assay [1] (setting [7]) and > 10000 nM in assay [2] (setting [8]).
Turning to `CNC(=O)c1cccc(F)c1Nc1nc(Nc2ccc3c(c2)C2CCC(C3)N2CCOC)ncc1Cl` (stereo not shown) [Example 456, 2-{5-Chloro-2-[12-(2-methoxy-ethyl)-12-aza-tricyclo[7.2.1.0(2,7)]dodeca-2(7),3,5-trien-4-ylamino]-pyrimidin-4-ylamino}-3-fluoro-N-methyl-benzamide], the IC50 in assay [1] (setting [5]) and in assay [2] (setting [6]) was < 100 nM throughout.
Consider `COCCN1CCc2ccc(Nc3ncc(Cl)c(Nc4ccccc4-c4ncccc4C(F)(F)F)n3)cc2CC1` [Example 992, 5-Chloro-N*2*-[3-(2-methoxy-ethyl)-2,3,4,5-tetrahydro-1H-benzo[d]azepin-7-yl]-N*4*-[2-(3-trifluoromethyl-pyridin-2-yl)-phenyl]-pyrimidine-2,4-diamine], for which the IC50 in assay [1] (setting [3]) was < 100 nM; in assay [2] (setting [4]) it was 1000 to 10000 nM.
On to `CNC(=O)CN1CCc2cc(Nc3ncc(Cl)c(Nc4c(F)cccc4C(=O)NC)n3)c(OC)cc2CC1` [Example 1116, 2-[5-Chloro-2-(8-methoxy-3-methylcarbamoylmethyl-2,3,4,5-tetrahydro-1H-benzo[d]azepin-7-ylamino)-pyrimidin-4-ylamino]-3-fluoro-N-methyl-benzamide], for which the IC50 in assay [1] (setting [7]) was < 100 nM; in assay [2] (setting [8]), 1000 to 10000 nM.
With `COc1cc(N2CCOCC2)ccc1Nc1nc(Nc2ccc3c(c2)C(C)(C)CCC(=O)N3C)ncc1Cl` [Example 1573, 7-[5-Chloro-4-(2-methoxy-4-morpholin-4-yl-phenylamino)-pyrimidin-2-ylamino]-1,5,5-trimethyl-1,3,4,5-tetrahydro-benzo[b]azepin-2-one], the figures for the IC50 in assay [1] (setting [9]) and in assay [2] (setting [10]) were < 100 nM and 1000 to 10000 nM, respectively.
Take `CCN1CC(=O)N(C)c2cc(Nc3ncc(Cl)c(N[C@H]4[C@@H](C(N)=O)[C@@H]5C=C[C@H]4C5)n3)c(OC)cc2C1` [Example 741]: the IC50 is < 100 nM in assay [1] (setting [3]) and > 10000 nM in assay [2] (setting [4]).
Turning to `CNC(=O)c1cccc(F)c1Nc1nc(Nc2ccc3c(c2)-n2cccc2C(=O)CO3)ncc1Cl` [Example 1268, 2-[5-Chloro-2-(4-oxo-4,5-dihydro-6-oxa-10b-aza-benz[e]azulen-9-ylamino)-pyrimidin-4-ylamino]-3-fluoro-N-methyl-benzamide], the values for the IC50 in assay [1] (setting [7]) and in assay [2] (setting [8]) were 100 to 1000 nM and < 100 nM, respectively.
With `CCN1C(=O)C(C)(C)CCc2c1ccc(Nc1ncc(Cl)c(N[C@@H]3CCCC[C@H]3NS(C)(=O)=O)n1)c2OC` [Example 143, N-{(1R,2R)-2-[5-Chloro-2-(1-ethyl-6-methoxy-3,3-dimethyl-2-oxo-2,3,4,5-tetrahydro-1H-benzo[b]azepin-7-ylamino)-pyrimidin-4-ylamino]-cyclohexyl}-methanesulfonamide], the results for the IC50 in assay [1] (setting [5]) and in assay [2] (setting [6]) were < 100 nM and > 10000 nM, respectively.
For the compound `CNS(=O)(=O)c1ccccc1Nc1nc(Nc2ccc3c(c2)CCCC(=O)N3CC(=O)O)ncc1Cl` [Example 9, {7-[5-Chloro-4-(2-methylsulfamoyl-phenylamino)-pyrimidin-2-ylamino]-2-oxo-2,3,4,5-tetrahydro-benzo[b]azepin-1-yl}-acetic acid], the IC50 in assay [1] (setting [5]) and in assay [2] (setting [6]) was < 100 nM throughout.
For `Cc1cccc(C(=O)NCC#N)c1Nc1nc(Nc2ccc3c(c2)CCCC(=O)N3C)ncc1Cl` [Example 1039, 2-[5-Chloro-2-(1-methyl-2-oxo-2,3,4,5-tetrahydro-1H-benzo[b]azepin-7-ylamino)-pyrimidin-4-ylamino]-N-cyanomethyl-3-methyl-benzamide], the IC50 in assay [1] (setting [7]) lay in the range of 1000 to 10000 nM; in assay [2] (setting [8]), 100 to 1000 nM.
On to `CCN1C(=O)CN(C(C)=O)Cc2ccc(Nc3ncc(Cl)c(Nc4c(C)csc4C(=O)NC)n3)cc21` [Example 1852, 3-[2-(4-Acetyl-1-ethyl-2-oxo-2,3,4,5-tetrahydro-1H-benzo[e][1,4]diazepin-8-ylamino)-5-chloro-pyrimidin-4-ylamino]-4-methyl-thiophene-2-carboxylic acid-methylamide], for which the IC50 in assay [1] (setting [9]) and in assay [2] (setting [10]) was < 100 nM in each case.
For `COc1cc2c(cc1Nc1ncc(Cl)c(Nc3ccccc3S(=O)(=O)N(C)C)n1)CCC(NCCO)CC2` (stereo not shown) [Example 1089, 2-{5-Chloro-2-[7-(2-hydroxy-ethylamino)-3-methoxy-6,7,8,9-tetrahydro-5H-benzocyclohepten-2-ylamino]-pyrimidin-4-ylamino}-N,N-dimethyl-benzenesulfonamide], the IC50 in assay [1] (setting [7]) is < 100 nM; in assay [2] (setting [8]), 1000 to 10000 nM.
On the same counts, the results for `COc1cc2c(cc1Nc1ncc(Cl)c(Nc3ccccc3S(=O)(=O)N3CC[C@@H](O)C3)n1)CCN(CC(=O)N(C)C)CC2` [Example 1205, 2-(7-{5-Chloro-4-[2-((R)-3-hydroxy-pyrrolidine-1-sulfonyl)-phenylamino]-pyrimidin-2-ylamino}-8-methoxy-1,2,4,5-tetrahydro-benzo[d]azepin-3-yl)-N,N-dimethyl-acetamide] are < 100 nM and 1000 to 10000 nM.
As for `CC1(C)CCCNc2ccc(Nc3ncc(Cl)c(N[C@@H]4CCCC[C@H]4NS(C)(=O)=O)n3)cc21` [Example 392, N-{(1R,2R)-2-[5-Chloro-2-(5,5-dimethyl-2,3,4,5-tetrahydro-1H-benzo[b]azepin-7-ylamino)-pyrimidin-4-ylamino]-cyclohexyl}-methanesulfonamide], the IC50 in assay [1] (setting [5]) is < 100 nM; in assay [2] (setting [6]) it was 1000 to 10000 nM.
As to `CNC(=O)c1ccccc1Nc1nc(Nc2ccc3c(c2)N(C)CCNC3)ncc1Cl` [Example 417, 2-[5-Chloro-2-(1-methyl-2,3,4,5-tetrahydro-1H-benzo[e][1,4]diazepin-8-ylamino)-pyrimidin-4-ylamino]-N-methylbenzamide], the IC50 in assay [1] (setting [5]) and in assay [2] (setting [6]) was < 100 nM throughout.
In the case of `COc1cc2c(cc1Nc1ncc(Cl)c(N[C@H]3[C@@H](C(N)=O)[C@@H]4C=C[C@H]3C4)n1)CCC(NCC(F)F)CC2` (single isomer, unassigned) [Example 1053], the IC50 in assay [1] (setting [7]) was < 100 nM; in assay [2] (setting [8]), > 10000 nM.
For the compound `CNC(=O)c1scc(C)c1Nc1nc(Nc2ccc3c(c2)NC(=O)CN(C(C)=O)C3)ncc1Cl` [Example 1850, 3-[2-(4-Acetyl-2-oxo-2,3,4,5-tetrahydro-1H-benzo[e][1,4]diazepin-8-ylamino)-5-chloro-pyrimidin-4-ylamino]-4-methyl-thiophene-2-carboxylic acid methylamide], the IC50 in assay [1] (setting [9]) and in assay [2] (setting [10]) was 100 to 1000 nM in each case.
